Marks after values point to notes of the source that are not given here.
Legend:
Salmonella typhimurium = settings: cited from earlier work
[1] = in vivo; cited from earlier work
rat liver microsomes [2] = assay type: biochemical; parameters: unit not given here
[3] = in vivo; cited from earlier work; remark: listed apart in the source
rat liver microsomes [4] = assay type: biochemical; parameters: key: Positive: the development of coloration denoted a positive response; Negative: the absence of such coloration denoted a negative response
rat liver microsomes [5] = test: Color development in detection elements with different leuco dyes (Table 2); assay type: biochemical; settings: applied dose 10 μmol (formaldehyde 1 μmol); for New Color Development, NBTZ: unexposed control also Black
Procedure: Solutions containing 0.5 mM of the respective dyes in 0.1 M TRIS buffer, pH=7.4 (except for nitro blue tetrazolium, 5.0 mM in 50% ethanolic TRIS, pH=7.4) were bleached with a few crystals of sodium sulfite or sodium dithionite, then plied in 0.02 mL aliquots as test spots on a clear sheet of transparency film. Spontaneous color development in air was noted (Table 2). Subsequently, a suspension of rat liver microsomes containing 1 mM NADPH and 1 mg/mL gelatin in 0.1 M TRIS-MOPS buffer (pH=7.7) was plied in 0.05 mL aliquots over the dried leuco-dye test spots. After drying, color development condition was noted, and the test spots saved for exposure tests to chemical substances (Table 2). Exposures were carried out by layering 0.01 mL of 0.1-1.0 M solutions of test chemical substances onto the test spots, and changes in color noted over time.

Molecule	Mutagenicity (Salmonella typhimurium)	Tumorigen Activity [1]	Detector Response, threshold dose (rat liver microsomes [2])	Teratogen Activity [3]	further results
CCNc1nc(Cl)nc(NC(C)C)n1 [Atrazine (ind.), Atrazine]	-	+^e	0.05	-	
OC[C@H]1O[C@@](CO)(O[C@H]2O[C@H](CO)[C@@H](O)[C@H](O)[C@H]2O)[C@@H](O)[C@@H]1O [Sucrose]					Carcinogenic Status [1]: Negative; Invention Response (rat liver microsomes [4]): Negative
CC(=O)O [Acetate]	-	-		-	Carcinogenic Status [1]: Negative; Invention Response (rat liver microsomes [4]): Negative
NC=O [Formamide]	-	-	100	+	
Oc1ccc(Cl)cc1 [4-Chlorophenol]	+	+	< 1	-	
CCOP(=S)(OCC)Oc1nc(Cl)c(Cl)cc1Cl [Chlorpyrifos (ind.), Chlorpyrifos]	-	-	0.01	+	
c1ccc(-c2cnc(-c3ccc(-c4ncc(-c5ccccc5)o4)cc3)o2)cc1 [POPOP]					Carcinogenic Status [1]: Negative; Invention Response (rat liver microsomes [4]): Negative
NC(N)=S [2-Thiourea]	+	+	7	+	
Cc1cc(C(C)(C)C)c(O)c(C(C)(C)C)c1 [BHT]	-	+/-	200	-	
c1ccc(Nc2ccccc2)cc1 [Diphenylamine]	-	-	100	+	
Cc1cccc(O)c1 [m-Cresol]	-	-	2	-	
CCOC(=O)c1ccc(O)cc1 [Ethyl p-Hydroxybenzoate]	-	-	30	+	
C[C@]12CCC(=O)C=C1CC[C@@H]1[C@@H]2[C@@H](O)C[C@@]2(C)[C@H]1CC[C@]2(O)C(=O)CO [Hydrocortisone]	-	-	0.1	+	
Oc1cccc(Cl)c1 [3-Chlorophenol]	-	+	< 1	-	
Nc1c(Cl)c(Cl)nc(C(=O)O)c1Cl [Picloram (ind.), Picloram]	-		0.01	+	Tumorigen Activity, assignment based on NCI/NTP carcinogenesis bioassay results [1]: +
Oc1cccc2cccnc12 [8-Hydroxyquinoline]	+	+	0.3	-	
O=c1ccc2ccccc2o1 [Coumarin]					Carcinogenic Status [1]: Positive; Invention Response (rat liver microsomes [4]): Positive
Cc1cc(O)ccc1O [Methylhydroquinone]	-	-	30	-	
CCN(CC)C(=S)S [Diethyldithiocarbamic acid]	-	+^t	0.2	+	Tumorigen Activity, assignment based on NCI/NTP carcinogenesis bioassay results [1]: -
Nc1ccccc1 [Aniline]	+	+^e	5	-	Carcinogenic Status [1]: Possible; Invention Response (rat liver microsomes [4]): Positive
O=S1OCC2C(CO1)C1(Cl)C(Cl)=C(Cl)C2(Cl)C1(Cl)Cl (stereo not shown) [Endosulfan (ind.), Endosulfan]	-	+^b	0.1	+	Tumorigen Activity, assignment based on NCI/NTP carcinogenesis bioassay results [1]: -
Cr(VI)	+	+^e	0.1	-	
O=N[O-].[Na+] [NaNO2]	+	+	0.1	+	

Molecule	Mutagenicity (Salmonella typhimurium)	Tumorigen Activity [1]	Detector Response, threshold dose (rat liver microsomes [2])	Teratogen Activity [3]	further results
N#CN [Cyanamid]	+	+^e	30	-	
CN(C)C(=O)Nc1ccc(Cl)c(Cl)c1 [DCMU, 3(3,4-Dichlorophenyl)-1,1,dimethylurea]		+^e		+	Carcinogenic Status [1]: Teratogen only; Invention Response (rat liver microsomes [4]): Positive
Cl[C@H]1[C@H](Cl)[C@@H](Cl)[C@@H](Cl)[C@H](Cl)[C@H]1Cl [Lindane (USP), Lindane]	-	+	0.2	+	
[La+3] [Lanthanum(III)]	-	-	5	-	
O=C1C=CC(=O)C=C1.Oc1ccc(O)cc1 [Quinhydrone]	-	+^e	0.1-0.2	-	
[Ca+2] [Calcium(II)]	-	+/-	10	-	
C=CC#N [Acrylonitrile]	+	+	20	+	
CCOC(=O)CC(SP(=S)(OC)OC)C(=O)OCC (stereo not shown) [Malathion (ind.), Malathion]	-	-	0.1	+	Mutagenicity, direct-acting mutagen (Salmonella typhimurium): +
C=CC(=O)NCNC(=O)C=C [Methylene(bis)acrylamide, Methylene(bis)-acrylamide]	-	-	< 2	-	
CC(C)[C@@H](C)/C=C/[C@@H](C)[C@H]1CC[C@H]2C3=CC=C4C[C@@H](O)CC[C@]4(C)[C@H]3CC[C@]12C [Ergosterol]	-	-	0.1	+	New Color Development, Methyl Green leuco dye (rat liver microsomes [5]): Green; New Color Development, Methyl Violet leuco dye (rat liver microsomes [5]): Violet; New Color Development, Naphthol Blue-Black leuco dye (rat liver microsomes [5]): None; New Color Development, Nile Blue A leuco dye (rat liver microsomes [5]): Blue; New Color Development, Safranin O leuco dye (rat liver microsomes [5]): Pink; New Color Development, NBTZ (rat liver microsomes [5]): Black
ClC1=C(Cl)C2(Cl)C3C(Cl)C(Cl)CC3C1(Cl)C2(Cl)Cl (stereo not shown) [Chlordane]					Carcinogenic Status [1]: Positive; Invention Response (rat liver microsomes [4]): Positive
C[C@H](CCC(=O)O)[C@H]1CC[C@H]2[C@@H]3CC[C@@H]4C[C@H](O)CC[C@]4(C)[C@H]3C[C@H](O)[C@]12C [Deoxycholate]	-	-	0.5	+	
Copper(II)	-	+/-	5	+	
ClCCCl [1,2-Dichloroethane]	+	+	20	-	
CC(C)=O [Acetone]	-	-	> 50	-	
[Ba+2] [Barium(II)]	-	-	20-100	-	
Oc1ccccc1Cl [2-Chlorophenol]	-	+	< 1	-	
C=Cc1ccccc1 [Styrene]					Carcinogenic Status [1]: Negative; Invention Response (rat liver microsomes [4]): Negative
C1COCCO1 [1,4-Dioxane]	-		10	-	Tumorigen Activity, assignment based on NCI/NTP carcinogenesis bioassay results [1]: +
CC(Cl)(Cl)Cl [CH3 CCl3]					New Color Development, Methyl Green leuco dye (rat liver microsomes [5]): None; New Color Development, Methyl Violet leuco dye (rat liver microsomes [5]): None^a,b; New Color Development, Naphthol Blue-Black leuco dye (rat liver microsomes [5]): None; New Color Development, Nile Blue A leuco dye (rat liver microsomes [5]): None; New Color Development, Safranin O leuco dye (rat liver microsomes [5]): None; New Color Development, NBTZ (rat liver microsomes [5]): Black
O=C1c2ccccc2C(=O)c2ccccc21 [Anthraquinone]	-	-	1-20	-	
[Dy+3] [Dysprosium(III)]	-	-	5	-	
